# Values quoted from earlier work in US9943543B2, “Treating male infertility secondary to sperm oxidative stress” (priority 2009, dated 2018).
smiles,measurement,setting,value
CCC(=O)O[C@H](CC(=O)[O-])C[N+](C)(C)C [Propionyl-L-carnitine],time to peak concentrations,after oral administration,about 1 hour
same,time of rise in L-carnitine plasma levels after administration,after oral administration of propionyl-L-carnitine,2 to 6 h
